Source: patent US11440909B2, “10H-phenothiazine ferroptosis inhibitor as well as the preparative method and the use thereof” (CHENGDU HENGHAO INVESTMENT CO. LIMITED, priority 2018, dated 2022)

What follows are compounds tested on fibrosarcoma cell line HT1080 (assay: Ferroptosis screening model (MTT method), Erastin-induced ferroptosis). Settings: HT1080, ferroptosis inducer Erastin, 72 h, average of three tests, read-out: EC50.
Type: cell-based, human
Protocol: The screening model for ferroptosis mainly used MTT method. First, the fibrosarcoma cell line HT1080 was cultured in a dish, and the cells in the logarithmic growth phase were inoculated into a 96-well plate in a certain number (3000-10000 cells/well), 100 μL per well, and then the plate was put in an 5% CO2 incubator at 37° C., to allow the cells to adhere. After 24 h, 100 μL compound solution at a certain concentration prepared in the designated medium and ferroptosis inducer Erastin (with a final concentration of […]) were added, setting 3 replicate wells for each compound to ensure the accuracy of the results, and a negative control group, a positive control group (Fer-15 μM), a blank control group and a solvent control group were included. After addition of drugs, the plate was placed in an incubator and cultivated for 72 h. On the day of MTT experiment, MTT test solution (5 mg/mL MTT solution dissolved in physiological saline, and stored in the dark at 4° C.) was pre-prepared and 20 μL MTT solution was added to each well, then the plate was put in an incubator and continued to incubate for 2-4 h. After that, 50 μL of 20% SDS solution (dissolved in MiliiQ water, added with 1% concentrated hydrochloric acid) was added to each well and kept in an incubator overnight. On the next day, the absorbance at 570 nm was measured with a microplate reader, to calculate the inhibition rate of drugs on ferroptosis. Generally, the absorbance value of the control group should be in the range of 0.8-1.2 as a normal value.
GraphPadPrism5 software was used to fit the change curve of inhibition rate and calculate the EC50.

Q: CC(c1ccccc1)c1ccc2c(c1)Nc1ccccc1S2 (stereo not drawn) [Compound A1, 2-(1-phenylethyl)-10H-phenothiazine] was tested. Which EC50 did it give?
A: The EC50 was 3 nM.

Q: CC(C)Oc1ccc(C(C)c2ccc3c(c2)Nc2ccccc2S3)cc1 (stereo not drawn) [Compound A33, 2-(1-(4-isopropoxylphenyl)ethyl)-10H-phenothiazine] was tested. Which EC50 did it give?
A: Its EC50 is 17 nM.

Q: For CC(C)Oc1ccc(C(C)c2ccc3c(c2)Nc2ccccc2S3)cc1 (stereo not drawn) [Compound A34, 2-(1-(4-isopropoxylphenyl)ethyl)-10H-phenothiazine], which EC50 is on record?
A: Its EC50 is 65 nM.

Same assay, conditions: Homo sapiens, HT-1080, 72 h, HT1080, ferroptosis inducer Erastin, 72 h, average of three tests, read-out: EC50

Q: How did the EC50 turn out when CC(c1cccc(F)c1)c1ccc2c(c1)Nc1ccccc1S2 (stereo not drawn) [Compound A2, 2-(1-(3-fluorophenyl)ethyl)-10H-phenothiazine] was run?
A: The EC50 was 6 nM.

Q: CC(c1cccc(Cl)c1)c1ccc2c(c1)Nc1ccccc1S2 (stereo not drawn) [Compound A3, 2-(1-(3-chlorophenyl)ethyl)-10H-phenothiazine] was tested. Which EC50 did it give?
A: The EC50 was 5 nM.

Q: For CC(c1cccc(I)c1)c1ccc2c(c1)Nc1ccccc1S2 (stereo not drawn) [Compound A4, 2-(1-(3-iodophenyl)ethyl)-10H-phenothiazine], which EC50 is on record?
A: Its EC50 is 5 nM.

Q: With CC(c1cccc(C#N)c1)c1ccc2c(c1)Nc1ccccc1S2 (stereo not drawn) [Compound A5, 3-(1-(10H-phenothiazin-2-yl)ethyl)benzonitrile] as the compound, how does the EC50 read?
A: The EC50 was 15 nM.

Q: With CC(c1cccc(O)c1)c1ccc2c(c1)Nc1ccccc1S2 (stereo not drawn) [Compound A6, 3-(1-(10H-phenothiazin-2-yl)ethyl)phenol] as the compound, how does the EC50 read?
A: Its EC50 is 5 nM.

Q: Which EC50 does the source give for CC(c1cccc(N)c1)c1ccc2c(c1)Nc1ccccc1S2 (stereo not drawn) [Compound A7, 3-(1-(10H-phenothiazin-2-yl)ethyl)phenylamine] here?
A: Its EC50 is 1 nM.

Q: Cc1cccc(C(C)c2ccc3c(c2)Nc2ccccc2S3)c1 (stereo not drawn) [Compound A8, 2-(1-(m-methylphenyl)ethyl)-10H-phenothiazine] was tested. Which EC50 did it give?
A: The EC50 was 5 nM.

Q: Which EC50 does the source give for CCc1cccc(C(C)c2ccc3c(c2)Nc2ccccc2S3)c1 (stereo not drawn) [Compound A9, 2-(1-(3-ethylphenyl)ethyl)-10H-phenothiazine] here?
A: The EC50 was 18 nM.

Q: With CC(C)c1cccc(C(C)c2ccc3c(c2)Nc2ccccc2S3)c1 (stereo not drawn) [Compound A10, 2-(1-(3-isopropylphenyl)ethyl)-10H-phenothiazine] as the compound, how does the EC50 read?
A: The EC50 was 12 nM.

Q: With CCOc1cccc(C(C)c2ccc3c(c2)Nc2ccccc2S3)c1 (stereo not drawn) [Compound A11, 2-(1-(3-ethoxylphenyl)ethyl)-10H-phenothiazine] as the compound, how does the EC50 read?
A: The EC50 was 19 nM.

Q: With CC(C)Oc1cccc(C(C)c2ccc3c(c2)Nc2ccccc2S3)c1 (stereo not drawn) [Compound A12, 2-(1-(3-isopropoxylphenyl)ethyl)-10H-phenothiazine] as the compound, how does the EC50 read?
A: Its EC50 is 15 nM.

Q: Which EC50 does the source give for CC(c1cccc(OCc2ccccc2)c1)c1ccc2c(c1)Nc1ccccc1S2 (stereo not drawn) [Compound A13, 2-(1-(3-(benzyloxyl)phenyl)ethyl)-10H-phenothiazine] here?
A: The EC50 was 25 nM.

Q: Which EC50 does the source give for CCOC(=O)c1cccc(C(C)c2ccc3c(c2)Nc2ccccc2S3)c1 (stereo not drawn) [Compound A14, 3-(1-(10H-phenothiazin-2-yl)ethyl)benzoic acid ethyl ester] here?
A: Its EC50 is 5 nM.

Q: CC(c1cccc(C(=O)OC(C)(C)C)c1)c1ccc2c(c1)Nc1ccccc1S2 (stereo not drawn) [Compound A15, 3-(1-(10H-phenothiazin-2-yl)ethyl)benzoic acid t-butyl ester] was tested. Which EC50 did it give?
A: The EC50 was 17 nM.

Q: Which EC50 does the source give for CC(c1cccc(NC(=O)OC(C)(C)C)c1)c1ccc2c(c1)Nc1ccccc1S2 (stereo not drawn) [Compound A16, (3-(1-(10H-phenothiazin-2-yl)ethyl)phenyl)carbamic acid t-butyl ester] here?
A: Its EC50 is 49 nM.

Q: How did the EC50 turn out when CC(c1cccc(OC(F)(F)F)c1)c1ccc2c(c1)Nc1ccccc1S2 (stereo not drawn) [Compound A17, 2-(1-(3-(trifluoromethoxyl)phenyl)ethyl)-10H-phenothiazine] was run?
A: The EC50 was 13 nM.

Q: How did the EC50 turn out when CC(c1cccc(-c2ccccc2)c1)c1ccc2c(c1)Nc1ccccc1S2 (stereo not drawn) [Compound A18, 2-(1-([1,1′-diphenyl]-3-yl)ethyl)-10H-phenothiazine] was run?
A: Its EC50 is 70 nM.

Q: With CC(c1ccc(F)cc1)c1ccc2c(c1)Nc1ccccc1S2 (stereo not drawn) [Compound A19, 2-(1-(4-fluorophenyl)ethyl)-10H-phenothiazine] as the compound, how does the EC50 read?
A: Its EC50 is 6 nM.

Q: With CC(c1ccc(Cl)cc1)c1ccc2c(c1)Nc1ccccc1S2 (stereo not drawn) [Compound A20, 2-(1-(4-chlorophenyl)ethyl)-10H-phenothiazine] as the compound, how does the EC50 read?
A: Its EC50 is 15 nM.

Q: How did the EC50 turn out when CC(c1ccc(C(F)(F)F)cc1)c1ccc2c(c1)Nc1ccccc1S2 (stereo not drawn) [Compound A21, 2-(1-(4-(trifluoromethyl)phenyl)ethyl)-10H-phenothiazine] was run?
A: The EC50 was 6 nM.

Q: CC(c1ccc(C#N)cc1)c1ccc2c(c1)Nc1ccccc1S2 (stereo not drawn) [Compound A22, 4-(1-(10H-phenothiazin-2-yl)ethyl)benzonitrile] was tested. Which EC50 did it give?
A: The EC50 was 6 nM.

Q: With CC(c1ccc(OC(F)(F)F)cc1)c1ccc2c(c1)Nc1ccccc1S2 (stereo not drawn) [Compound A23, 2-(1-(4-(trifluoromethoxyl)phenyl)ethyl)-10H-phenothiazine] as the compound, how does the EC50 read?
A: The EC50 was 20 nM.

Q: CCc1ccc(C(C)c2ccc3c(c2)Nc2ccccc2S3)cc1 (stereo not drawn) [Compound A24, 2-(1-(4-ethylphenyl)ethyl)-10H-phenothiazine] was tested. Which EC50 did it give?
A: The EC50 was 20 nM.

Q: How did the EC50 turn out when CCCc1ccc(C(C)c2ccc3c(c2)Nc2ccccc2S3)cc1 (stereo not drawn) [Compound A25, 2-(1-(4-propylphenyl)ethyl)-10H-phenothiazine] was run?
A: The EC50 was 21 nM.

Q: With CC(C)c1ccc(C(C)c2ccc3c(c2)Nc2ccccc2S3)cc1 (stereo not drawn) [Compound A26, 2-(1-(4-isopropylphenyl)ethyl)-10H-phenothiazine] as the compound, how does the EC50 read?
A: Its EC50 is 6 nM.

Q: For CCCCc1ccc(C(C)c2ccc3c(c2)Nc2ccccc2S3)cc1 (stereo not drawn) [Compound A27, 2-(1-(4-butylphenyl)ethyl)-10H-phenothiazine], which EC50 is on record?
A: Its EC50 is 64 nM.

Q: With CC(C)Cc1ccc(C(C)c2ccc3c(c2)Nc2ccccc2S3)cc1 (stereo not drawn) [Compound A28, 2-(1-(4-isobutylphenyl)ethyl)-10H-phenothiazine] as the compound, how does the EC50 read?
A: The EC50 was 8 nM.

Q: CC(c1ccc(C(C)(C)C)cc1)c1ccc2c(c1)Nc1ccccc1S2 (stereo not drawn) [Compound A29, 2-(1-(4-t-butylphenyl)ethyl)-10H-phenothiazine] was tested. Which EC50 did it give?
A: The EC50 was 7 nM.

Q: COc1ccc(C(C)c2ccc3c(c2)Nc2ccccc2S3)cc1 (stereo not drawn) [Compound A30, 2-(1-(4-methoxylphenyl)ethyl)-10H-phenothiazine] was tested. Which EC50 did it give?
A: The EC50 was 6 nM.

Q: How did the EC50 turn out when CCOc1ccc(C(C)c2ccc3c(c2)Nc2ccccc2S3)cc1 (stereo not drawn) [Compound A31, 2-(1-(4-ethoxylphenyl)ethyl)-10H-phenothiazine] was run?
A: The EC50 was 17 nM.

Q: With CCCOc1ccc(C(C)c2ccc3c(c2)Nc2ccccc2S3)cc1 (stereo not drawn) [Compound A32, 2-(1-(4-propoxylphenyl)ethyl)-10H-phenothiazine] as the compound, how does the EC50 read?
A: The EC50 was 62 nM.

Q: With CC(c1ccc(OCc2ccccc2)cc1)c1ccc2c(c1)Nc1ccccc1S2 (stereo not drawn) [Compound A35, 2-(1-(4-(benzyloxyl)phenyl)ethyl)-10H-phenothiazine] as the compound, how does the EC50 read?
A: Its EC50 is 14 nM.

Q: For COC(=O)c1ccc(C(C)c2ccc3c(c2)Nc2ccccc2S3)cc1 (stereo not drawn) [Compound A36, 4-(1-(10H-phenothiazin-2-yl)ethyl)benzoic acid methyl ester], which EC50 is on record?
A: Its EC50 is 13 nM.

Q: How did the EC50 turn out when CC(c1ccc(N(c2ccccc2)c2ccccc2)cc1)c1ccc2c(c1)Nc1ccccc1S2 (stereo not drawn) [Compound A37, 4-(1-(10H-phenothiazin-2-yl)ethyl)-N,N-diphenylphenylamine] was run?
A: The EC50 was 323 nM.

Q: How did the EC50 turn out when CC(c1ccc(F)c(F)c1)c1ccc2c(c1)Nc1ccccc1S2 (stereo not drawn) [Compound A39, 2-(1-(3,4-difluorophenyl)ethyl)-10H-phenothiazine] was run?
A: The EC50 was 17 nM.

Q: With CC(c1ccc(F)c(Cl)c1)c1ccc2c(c1)Nc1ccccc1S2 (stereo not drawn) [Compound A40, 2-(1-(3-chloro-4-fluorophenyl)ethyl)-10H-phenothiazine] as the compound, how does the EC50 read?
A: Its EC50 is 5 nM.

Q: For CC(c1ccc2c(c1)Nc1ccccc1S2)c1ccc(F)c(C(F)(F)F)c1 (stereo not drawn) [Compound A41, 2-(1-(4-fluoro-3-(trifluoromethyl)phenyl)ethyl)-10H-phenothiazine], which EC50 is on record?
A: Its EC50 is 18 nM.

Q: Which EC50 does the source give for CC(c1ccc(Cl)c(Cl)c1)c1ccc2c(c1)Nc1ccccc1S2 (stereo not drawn) [Compound A42, 2-(1-(3,4-dichlorophenyl)ethyl)-10H-phenothiazine] here?
A: Its EC50 is 16 nM.

Q: CC(c1ccc2c(c1)Nc1ccccc1S2)c1ccc(Cl)c(C(F)(F)F)c1 (stereo not drawn) [Compound A43, 2-(1-(4-chloro-3-(trifluoromethyl)phenyl)ethyl)-10H-phenothiazine] was tested. Which EC50 did it give?
A: The EC50 was 17 nM.

Q: With CC(c1ccc(Cl)c(F)c1)c1ccc2c(c1)Nc1ccccc1S2 (stereo not drawn) [Compound A44, 2-(1-(4-chloro-3-fluorophenyl)ethyl)-10H-phenothiazine] as the compound, how does the EC50 read?
A: Its EC50 is 19 nM.

Q: How did the EC50 turn out when CC(c1ccc(C(F)(F)F)c(Cl)c1)c1ccc2c(c1)Nc1ccccc1S2 (stereo not drawn) [Compound A45, 2-(1-(3-chloro-4-(trifluoromethyl)phenyl)ethyl)-10H-phenothiazine] was run?
A: Its EC50 is 22 nM.

Q: Cc1ccc(C(C)c2ccc3c(c2)Nc2ccccc2S3)cc1C (stereo not drawn) [Compound A46, 2-(1-(3,4-dimethylphenyl)ethyl)-10H-phenothiazine] was tested. Which EC50 did it give?
A: Its EC50 is 21 nM.

Q: COc1ccc(C(C)c2ccc3c(c2)Nc2ccccc2S3)cc1OC (stereo not drawn) [Compound A47, 2-(1-(3,4-dimethoxylphenyl)ethyl)-10H-phenothiazine] was tested. Which EC50 did it give?
A: Its EC50 is 7 nM.

Q: How did the EC50 turn out when COc1cc(C(C)c2ccc3c(c2)Nc2ccccc2S3)ccc1C (stereo not drawn) [Compound A48, 2-(1-(3-methoxyl-4-methylphenyl)ethyl)-10H-phenothiazine] was run?
A: The EC50 was 22 nM.

Q: For COc1ccc(C(C)c2ccc3c(c2)Nc2ccccc2S3)cc1C (stereo not drawn) [Compound A49, 2-(1-(4-methoxyl-3-methylphenyl)ethyl)-10H-phenothiazine], which EC50 is on record?
A: Its EC50 is 19 nM.
